Results reported in the supplement of paper PMC11451515.

Legend:
Assay in all cases: AUC of viability dose-response curve (% viability x log10 dose units); higher = less sensitive
Details in all cases: 48 h
P12-Ichikawa = tested on: P12-Ichikawa
Procedure, shortened: (§1)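 Leukemia cells adapted to each medium were seeded at 500 or 1000 cells/well in 1536-well plates and dosed with library compounds in DMSO at 11 threefold doses from 47 μM to 0.79 nM for 48 h at 37°C. CellTiter-Glo One luminescence was normalised per plate to DMSO and cell-free wells, then fitted with a four-parameter log-logistic model over log10 doses. Area under the curve was taken from this fit by the trapezoidal rule, with curves above full viability scaled and curves failing quality control removed.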

NOMO1 = tested on: NOMO1
Procedure, shortened: as §1

SEM cells = tested on: SEM cells
Procedure, shortened: as §1

[1] = RPMI 5 mM glucose + 10% dialyzed FBS

Row | Compound | AUC of viability dose-response curve (P12-Ichikawa; HPLM + 10% dialyzed FBS) | AUC of viability dose-response curve (P12-Ichikawa; RPMI 5 mM glucose + 10% FBS) | AUC of viability dose-response curve (P12-Ichikawa; [1]) | AUC of viability dose-response curve (NOMO1; HPLM + 10% dialyzed FBS) | AUC of viability dose-response curve (NOMO1; RPMI 5 mM glucose + 10% FBS) | AUC of viability dose-response curve (NOMO1; [1]) | AUC of viability dose-response curve (SEM cells; HPLM + 10% dialyzed FBS) | AUC of viability dose-response curve (SEM cells; RPMI 5 mM glucose + 10% FBS) | AUC of viability dose-response curve (SEM cells; [1])
1 | C[C@]12C[C@H](O)[C@H]3[C@@H](CC\C4=C\C(=O)\C=C/[C@]34C)[C@@H]1CC[C@]2(O)C(=O)CO | 372 | 353 | 349 | 446 | 456 | 449 | 389 | 380 | 359
2 | CCN(CC)CC#CCOC(=O)C(O)(c1ccccc1)C1CCCCC1 (stereo not drawn) | 460 | 475 | 472 | 468 | 473 | 465 | 458 | 476 | 471
3 | NC[C@H]1CC[C@H](C(=O)O)CC1 |  |  |  | 455 | 475 | 448 | 443 | 456 | 456
4 | C[C@]12CC[C@@H]3c4ccc(OC(=O)N(CCCl)CCCl)cc4CC[C@H]3[C@@H]1CC[C@@H]2OP(=O)([O-])[O-].[Na+].[Na+] |  |  |  | 406 | 460 | 455 | 429 | 397 | 382
5 | CC1=NN(c2ccc(C)c(C)c2)C(=O)/C1=N/Nc1cccc(-c2cccc(C(=O)O)c2)c1O | 448 | 430 | 426 | 431 | 448 | 428 | 453 | 448 | 442
6 | COc1ccc(Cc2ccc(NC(N)=O)cc2)cc1-c1cccc(Cl)c1 | 467 | 465 | 464 | 472 | 471 | 476 | 458 | 465 | 469
7 | ClC1=C(N\C2=N\CCN2)C3=NSN=C3C=C1 | 461 | 465 | 455 | 434 | 440 | 428 | 419 | 427 | 432
8 | CC(C)(C)C(=O)Oc1ccc2c(c1)nc(NC(=O)c1cccc([N+](=O)[O-])c1)n2CCCO | 460 | 437 | 445 | 461 | 459 | 458 | 448 | 452 | 418
9 | C[C@H](NC(=O)/C(C#N)=C/c1cccc(Br)n1)c1ccccc1 | 336 | 353 | 351 | 348 | 361 | 371 | 336 | 316 | 336
10 | CN(c1ncccc1CNc1nc(Nc2ccc3c(c2)CC(=O)N3)ncc1C(F)(F)F)[S+](C)(=O)[O-] | 462 | 447 | 459 | 451 | 448 | 446 | 362 | 342 | 321
11 | CC(C)n1c(/C=C/[C@H](O)C[C@H](O)CC(=O)O)c(-c2ccc(F)cc2)c2ccccc21 | 381 | 371 | 355 | 428 | 457 | 448 | 430 | 426 | 441
